Test results as given in patent US20190177279A1, “CARBOXYLIC ACID AROMATIC 1,2-CYCLOPROPYLAMIDES” (Bayer Pharma Aktiengesellschaft, priority 2017, published 2019).

Experiments:
human B1 receptor = molecular target: T1, human B1 receptor (Homo sapiens, UniProt P46663); experiment: Calcium flux assay (FLIPR) with recombinant CHO-K1 cells expressing human B1 receptor; format: cell-based; conditions: absence of 0.1% BSA in assay buffer, agonist Lys-(Des-Arg)-Bradykinin, read-out: hB1 free IC50
T1 construct: host or cells: CHO-K1
T1 sequence (P46663 1-353): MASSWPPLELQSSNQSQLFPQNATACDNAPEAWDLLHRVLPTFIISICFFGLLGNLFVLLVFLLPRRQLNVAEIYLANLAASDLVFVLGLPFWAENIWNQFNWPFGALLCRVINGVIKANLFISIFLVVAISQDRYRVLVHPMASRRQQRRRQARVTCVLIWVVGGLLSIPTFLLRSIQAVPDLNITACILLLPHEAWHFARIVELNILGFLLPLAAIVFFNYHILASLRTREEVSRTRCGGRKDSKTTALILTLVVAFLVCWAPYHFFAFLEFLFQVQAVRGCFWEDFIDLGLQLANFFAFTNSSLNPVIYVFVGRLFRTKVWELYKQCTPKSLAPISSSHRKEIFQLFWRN
Description: The potency to inhibit the Bradykinin B1 receptors was determined for the example compounds of this invention in a cell-based fluorescent calcium-mobilisation assay. The assay measures the ability of example compounds to inhibit Bradykinin B1 receptor agonist-induced increase of intracellular free Ca^2+ in the cell line expressing B1 receptor. Specifically, calcium indicator—loaded cells are pre-incubated in the absence or presence of different concentrations of example compounds followed by the stimulation with a selective B1 receptor agonist peptide. The change of the intracellular Ca^2+ concentration is monitored with a fluorescent plate reader FLIPR (Molecular Devices).
Calcium flux Assay (FLIPR) with recombinant cells for Bradykinin B1 receptor antagonist, either in the presence (hB1 IC50) or absence (hB1 free IC50) of 0.1% BSA in assay buffer
CHO-K1 cell line expressing human B1 receptor was purchased from Euroscreen (Gosselies, Belgium, with reference name hB1-D1). The cells were grown in Nutrient Mixture Ham's F12 (Sigma) containing 10% Foetal bovine serum (Sigma) and 400 μg/mL G418 (Sigma), 5 μg/mL puromycin (Sigma).
For the calcium flux assay, 80% confluent cells were detached from the culture vessels with Versene (Gibco), and seeded into 384-well plates (Cell binding Surface; Corning, N.Y.; #3683) at a density of 15,000 cells per well. Cells were seeded in a volume of 50 μL in medium without antibiotics and incubated overnight in a humidified atmosphere with 5% CO2 at 37° C. […] The calcium indicator loaded cells were incubated at 37° C. for 2 hrs. Extracellular dye was then removed and each well was filled with 45 μL of assay buffer. Cell plates were kept in dark until used. Example compounds were assayed at 8 concentrations in triplicate. Serial 10-fold dilutions in 100% DMSO were made at a 100-times higher concentration than the final concentration, and then diluted 1:10 in assay buffer. 5 μL of each diluted compound was added to the well of cell plates (yielding final concentration with 1% DMSO), and incubated for 30 min at 28° C. before the addition of B1 receptor agonist on the FLIPR instrument.
Agonist plates contained the agonist Lys-(Des-Arg)-Bradykinin (Bachem, Brackley) at 3.5×EC90 in assay buffer with 1% DMSO. The addition of agonist 20 μl per well to the assay plate was carried out on the FLIPR instrument while continuously monitoring Ca^2+-dependent fluorescence at 538 nm. A peptide antagonist Lys-(Des-Arg-Leu)-Bradykinin (Bachem, Brackley) at 20 µM was used to determine the full inhibition as control.
Peak fluorescence was used to determine the response to agonist obtained at each concentration of example compound by the following equation:
% Response=100*(RFU(example compound)−RFU(control)/(RFU(DMSO)−RFU(control)) • Control=full inhibition by the peptide antagonist Lys-(Des-Arg-Leu)-Bradykinin at 20 μM
The response values were plotted against the logarithm of the compound concentrations. The compounds were tested in triplicates per plate and mean values were plotted in Excel XLfit to determine IC50 values, percentage of maximal inhibition and the Hill slopes.

[1] = molecular target: T2, native human B1 receptors (Homo sapiens, UniProt P46663); experiment: Calcium flux assay (FLIPR) with IMR-90 human foetal lung fibroblasts after IL-1 induction; format: cell-based; conditions: IMR-90 fibroblasts induced with human IL-1; 0.1% BSA in assay buffer; agonist Lys-(Des-Arg)-Bradykinin at EC90; read-out: hB1 IC50 IMR90
T2 construct: which express native human B1 receptors after induction with human IL-1; Coriell Institute; host or cells: IMR-90 human foetal lung fibroblasts, induced with human IL-1
T2 sequence (P46663 1-353): T1 sequence (P46663 1-353)
Description: Calcium Flux Assay (FLIPR) with Human Fibroblasts for Bradykinin B1 Receptor Antagonist (hB1 IMR-90 IC50)
The Calcium flux Assay was carried out utilising IMR-90 human foetal lung fibroblasts (American Type Culture Collection, Rockville, Md.; and Coriell Institute, Camden, N.J.), which express native human B1 receptors after induction with human IL-1[…].
The fibroblasts were cultured in complete growth media comprised of Dulbecco's modified Eagle's medium (DMEM; Sigma) containing 10% foetal bovine serum, 4 mM L-glutamine, and 1% nonessential amino acids. The cells were maintained in a humidified atmosphere with 5% CO2 at 37° C. and were sub-cultured at a ratio of 1:3, every other day.
For the assay, IMR-90 fibroblasts were harvested using TrypLE Express (GIBCO/Invitrogen) and seeded into 384-well plates (Corning Cellbinding Surface, Cat. 3683) at a density of 15000 cells/well. The following day, cells were treated with 0.35 ng/mL human IL-1[…] in 10% FBS/MEM for 3 h to up-regulate B1 receptors. Induced cells were loaded with fluorescent calcium indicator by incubation with 2.5 μM Fluo-4/AM (Invitrogen) at 37° C., 5% CO2 for 2 h in the presence of 2.5 mM probenecid in 1% FBS/MEM. Extracellular dye was removed by washing with assay buffer (2.5 mM probenecid and 0.1% BSA in 20 mM HEPES/HBSS without bicarbonate or phenol red, pH 7.5). Example compounds were assayed at 8 concentrations in triplicate. After addition of example compounds to the cell plate and incubation for 30 min at 28° C., the addition of B1 agonist Lys-(Des-Arg)-Bradykinin (Bachem, Brackley) at a final concentration of EC90 was carried out on the FLIPR instrument while continuously monitoring Ca^2+-dependent fluorescence at 538 nm. A peptide antagonist Lys-(Des-Arg-Leu)-Bradykinin (Bachem, Brackley) at 20 μM was used to determine the full inhibition as control. IC50 values were determined by the same way described for the FLIPR assay with recombinant cells.

| Compound | IC50 (human B1 receptor) [nM] | IC50 [1] [nM] |
| --- | --- | --- |
| Cc1ccc(-c2ccc(NC(=O)C3CC3c3ccc(Cl)cc3)cc2C(=O)O)cn1 (racemic) [Example 15, 5-({[2-(4-chlorophenyl)cyclopropyl]carbonyl}amino)-2-(6-methylpyridin-3-yl)benzoic acid] | 2420 | 12000 |
| O=C(O)c1cc(NC(=O)C2CC2c2ccc(Cl)cc2)ccc1-c1cnn(C2CCC2)c1 (racemic) [Example 6, 5-({[2-(4-chlorophenyl)cyclopropyl]carbonyl}amino)-2-(1-cyclobutyl-1H-pyrazol-4-yl)benzoic acid] | 272 | – |
| CC(C)(C)c1cnn(-c2ccc(NC(=O)C3CC3c3ccc(Cl)cc3)cc2C(=O)O)c1 (racemic) [Example 13, 2-(4-tert-Butyl-1H-pyrazol-1-yl)-5-({[2-(4-chlorophenyl)cyclopropyl]carbonyl}amino)benzoic acid] | 1760 | 3390 |
| O=C(O)c1cc(NC(=O)C2CC2c2ccccc2OC(F)(F)F)ccc1-c1cnn(C2CCC2)c1 (racemic) [Example 10, 2-(1-cyclobutyl-1H-pyrazol-4-yl)-5-[({2-[2-(trifluoromethoxy)phenyl]cyclopropyl}carbonyl)amino]benzoic acid] | 353 | – |
| O=C(O)c1cc(NC(=O)C2CC2c2cccc(Cl)c2)cc(F)c1-c1cnn(C2CCC2)c1 (single isomer, unassigned; (+)) [Example 8, (+)-5-({[2-(3-chlorophenyl)cyclopropyl]carbonyl}amino)-2-(1-cyclobutyl-1H-pyrazol-4-yl)-3-fluorobenzoic acid] | 1130 | – |
| Cc1cccc(C2CC2C(=O)Nc2ccc(-c3cnn(C4CCC4)c3)c(C(=O)O)c2)c1 (racemic) [Example 5, 2-(1-cyclobutyl-1H-pyrazol-4-yl)-5-({[2-(3-methylphenyl)cyclopropyl]carbonyl}amino) benzoic acid] | 110 | – |
| O=C(O)c1cc(NC(=O)C2CC2c2cccc(C(F)(F)F)c2)ccc1-c1cnn(C2CCC2)c1 (racemic) [Example 12, 2-(1-cyclobutyl-1H-pyrazol-4-yl)-5-[({2-[3-(trifluoromethyl)phenyl]cyclopropyl}carbonyl)amino]benzoic acid] | 126 | – |
| CC(F)(F)c1ccc(-c2ccc(NC(=O)C3CC3c3ccccc3OC(F)(F)F)cc2C(=O)O)cn1 (racemic) [Example 16, 2-[6-(1,1-difluoroethyl)pyridin-3-yl]-5-[({2-[2-(trifluoromethoxy)phenyl]cyclopropyl}carbonyl)amino]benzoic acid] | 2570 | – |
| O=C(O)c1cc(NC(=O)C2CC2c2cccc(Cl)c2)ccc1-c1cnn(C2CCC2)c1 (single isomer, unassigned) [Example 11, 5-({[2-(3-chlorophenyl)cyclopropyl]carbonyl}amino)-2-(1-cyclobutyl-1H-pyrazol-4-yl)benzoic acid] | 32 | – |
| CC(C)(C)c1ccn(-c2ccc(NC(=O)C3CC3c3ccc(Cl)cc3)cc2C(=O)O)n1 (racemic) [Example 14, 2-(3-tert-Butyl-1H-pyrazol-1-yl)-5-({[2-(4-chlorophenyl)cyclopropyl]carbonyl}amino)benzoic acid] | 2220 | – |
| O=C(O)c1cc(NC(=O)C2CC2c2ccc(Cl)cc2)ccc1-c1cnn(C2CCC2)c1 (single isomer, unassigned) [Example 7, 5-({[2-(4-chlorophenyl)cyclopropyl]carbonyl}amino)-2-(1-cyclobutyl-1H-pyrazol-4-yl)benzoic acid] | 117 | – |
| O=C(O)c1cc(NC(=O)C2CC2c2cccc(Cl)c2)cc(F)c1-c1cnn(C2CCC2)c1 (single isomer, unassigned; (-)) [Example 9, (−)-5-({[2-(3-chlorophenyl)cyclopropyl]carbonyl}amino)-2-(1-cyclobutyl-1H-pyrazol-4-yl)-3-fluorobenzoic acid] | 17 | – |

Second part, the compound after the results:

| IC50 (human B1 receptor) [nM] | IC50 [1] [nM] | Compound |
| --- | --- | --- |
| 2510 | – | CC(F)(F)c1ccc(-c2ccc(NC(=O)C3CC3c3cccc(C(F)(F)F)c3)cc2C(=O)O)cn1 (racemic) [Example 18, 2-[6-(1,1-difluoroethyl)pyridin-3-yl]-5-[({2-[3-(trifluoromethyl)phenyl]cyclopropyl}carbonyl)amino]bentoic acid] |
| 10 | 51 | (+)-5-({[trans-2-(4-chlorophenyl)cyclopropyl]carbonyl}amino)-2-(1-cyclobutyl-1H-pyrazol-4-yl)-3-fluorobenzoic acid [Example 3] |
| 2470 | – | CC(F)(F)c1ccc(-c2ccc(NC(=O)C3CC3c3cccc(Cl)c3)cc2C(=O)O)cn1 (racemic) [Example 17] |
| 2490 | – | CC(F)(F)c1ccc(-c2ccc(NC(=O)C3CC3c3ccc(Cl)cc3)cc2C(=O)O)cn1 (racemic) [Example 19, 5-({[2-(4-chlorophenyl)cyclopropyl]carbonyl}amino)-2-[6-(1,1-difluoroethyl)pyridin-3-yl]benzoic acid] |
| 1180 | – | (−)-5-({[trans-2-(4-chlorophenyl)cyclopropyl]carbonyl}amino)-2-(1-cyclobutyl-1H-pyrazol-4-yl)-3-fluorobenzoic acid [Example 4] |
| 403 | – | CCC(F)(F)c1ccc(-c2ccc(NC(=O)C3CC3c3cccc(C(F)(F)F)c3)cc2C(=O)O)cn1 (racemic) [Example 21, 2-[6-(1,1-difluoropropyl)pyridin-3-yl]-5-[({2-[3-(trifluoromethyl)phenyl]cyclopropyl}carbonyl)amino]benzoic acid] |
| 1190 | – | CCC(F)(F)c1ccc(-c2ccc(NC(=O)C3CC3c3cccc(Cl)c3)cc2C(=O)O)cn1 (racemic) [Example 22, 5-({[2-(3-chlorophenyl)cyclopropyl]carbonyl}amino)-2-[6-(1,1-difluoropropyl)pyridin-3-yl]benzoic acid] |
| 1520 | – | CCC(F)(F)c1ccc(-c2ccc(NC(=O)C3CC3c3ccccc3OC(F)(F)F)cc2C(=O)O)cn1 (racemic) [Example 20, 2-[6-(1,1-difluoropropyl)pyridin-3-yl]-5-[({2-[2-(trifluoromethoxy)phenyl]cyclopropyl}carbonyl)amino]benzoic acid] |
